Measurements published in PubChem BioAssay (NCI).
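Compound exposure: 48 hours, 5 concentrations, 96-well plates. Abbreviation: GI50, concentration required for 50% inhibition of growth. TGI denotes the concentration required for complete inhibition of growth.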

Columns and labels:
Test in all cases: NCI-60 cell line screen, 48 h
786-0 renal = test system: 786-0 renal
A498 renal = test system: A498 renal
A549 NSCLC = test system: A549 NSCLC
ACHN renal = test system: ACHN renal
BT-549 breast = test system: BT-549 breast
CAKI-1 renal = test system: CAKI-1 renal
CCRF-CEM leukemia = test system: CCRF-CEM leukemia
COLO 205 colon = test system: COLO 205 colon
DU-145 prostate = test system: DU-145 prostate
EKVX NSCLC = test system: EKVX NSCLC
HCC-2998 colon = test system: HCC-2998 colon
HCT-116 colon = test system: HCT-116 colon
HCT-15 colon = test system: HCT-15 colon
HL-60(TB) leukemia = test system: HL-60(TB) leukemia
HOP-62 NSCLC = test system: HOP-62 NSCLC
HOP-92 NSCLC = test system: HOP-92 NSCLC
HS 578T breast = test system: HS 578T breast
HT29 colon = test system: HT29 colon
K-562 leukemia = test system: K-562 leukemia
KM12 colon = test system: KM12 colon
LOX IMVI melanoma = test system: LOX IMVI melanoma
M14 melanoma = test system: M14 melanoma
MALME-3M melanoma = test system: MALME-3M melanoma
MCF7 breast = test system: MCF7 breast
MDA-MB-231 breast = test system: MDA-MB-231 breast
MDA-MB-435 = test system: MDA-MB-435
MOLT-4 leukemia = test system: MOLT-4 leukemia
NCI-H226 lung = test system: NCI-H226 lung
NCI-H23 lung = test system: NCI-H23 lung
NCI-H460 lung = test system: NCI-H460 lung
NCI-H522 lung = test system: NCI-H522 lung
NCI/ADR-RES ovarian = test system: NCI/ADR-RES ovarian
OVCAR-3 ovarian = test system: OVCAR-3 ovarian
OVCAR-4 ovarian = test system: OVCAR-4 ovarian
OVCAR-5 ovarian = test system: OVCAR-5 ovarian
OVCAR-8 ovarian = test system: OVCAR-8 ovarian
PC-3 prostate = test system: PC-3 prostate
RPMI-8226 leukemia = test system: RPMI-8226 leukemia
RXF 393 renal = test system: RXF 393 renal
SF-268 CNS = test system: SF-268 CNS
SF-295 CNS = test system: SF-295 CNS
SF-539 CNS = test system: SF-539 CNS
SK-MEL-2 melanoma = test system: SK-MEL-2 melanoma
SK-MEL-28 melanoma = test system: SK-MEL-28 melanoma
SK-MEL-5 melanoma = test system: SK-MEL-5 melanoma
SK-OV-3 ovarian = test system: SK-OV-3 ovarian
SN12C renal = test system: SN12C renal
SNB-19 CNS = test system: SNB-19 CNS
SNB-75 CNS = test system: SNB-75 CNS
SW-620 colon = test system: SW-620 colon
T-47D breast = test system: T-47D breast
TK-10 renal = test system: TK-10 renal
U251 CNS = test system: U251 CNS
UACC-257 melanoma = test system: UACC-257 melanoma
UACC-62 melanoma = test system: UACC-62 melanoma
UO-31 renal = test system: UO-31 renal

O=C(N/N=C/c1ccc(Cl)cc1Cl)c1ccccc1Nc1cccc(C(F)(F)F)c1
GI50 (786-0 renal): 6.74 µM
TGI (786-0 renal): 31 µM
GI50 (A498 renal): 14.9 µM
TGI (A498 renal): 52.4 µM
GI50 (A549 NSCLC): 2.31 µM
TGI (A549 NSCLC): 6.18 µM
GI50 (ACHN renal): 3.77 µM
TGI (ACHN renal): 16.5 µM
GI50 (BT-549 breast): 3.84 µM
TGI (BT-549 breast): 32.5 µM
GI50 (CAKI-1 renal): 3.45 µM
TGI (CAKI-1 renal): 14.4 µM
GI50 (CCRF-CEM leukemia): 3.51 µM
TGI (CCRF-CEM leukemia): 19.3 µM
GI50 (COLO 205 colon): 2.73 µM
TGI (COLO 205 colon): 9.37 µM
GI50 (DU-145 prostate): 4.08 µM
TGI (DU-145 prostate): 38.7 µM
GI50 (EKVX NSCLC): 12.2 µM
TGI (EKVX NSCLC): 80.1 µM
GI50 (HCC-2998 colon): 8.52 µM
TGI (HCC-2998 colon): > 100 µM
GI50 (HCT-116 colon): 5.62 µM
TGI (HCT-116 colon): 29.9 µM
GI50 (HCT-15 colon): 30.5 µM
TGI (HCT-15 colon): > 100 µM
GI50 (HL-60(TB) leukemia): 79 µM
TGI (HL-60(TB) leukemia): > 100 µM
GI50 (HOP-62 NSCLC): 5.36 µM
TGI (HOP-62 NSCLC): 18.3 µM
GI50 (HOP-92 NSCLC): 1.5 µM
TGI (HOP-92 NSCLC): 3.57 µM
GI50 (HS 578T breast): 4.1 µM
TGI (HS 578T breast): 44.5 µM
GI50 (HT29 colon): 14.4 µM
TGI (HT29 colon): > 100 µM
GI50 (K-562 leukemia): 4.86 µM
TGI (K-562 leukemia): > 100 µM
GI50 (KM12 colon): 9.07 µM
TGI (KM12 colon): > 100 µM
GI50 (LOX IMVI melanoma): 7.26 µM
TGI (LOX IMVI melanoma): 63.7 µM
GI50 (M14 melanoma): 5.51 µM
TGI (M14 melanoma): 35.3 µM
GI50 (MALME-3M melanoma): 2.62 µM
TGI (MALME-3M melanoma): 10.5 µM
GI50 (MCF7 breast): 11.3 µM
TGI (MCF7 breast): > 100 µM
GI50 (MDA-MB-231 breast): 4.79 µM
TGI (MDA-MB-231 breast): 32.2 µM
GI50 (MDA-MB-435): 22.3 µM
TGI (MDA-MB-435): > 100 µM
GI50 (MOLT-4 leukemia): 4.22 µM
TGI (MOLT-4 leukemia): 40 µM
GI50 (NCI-H226 lung): 3.67 µM
TGI (NCI-H226 lung): 43.5 µM
GI50 (NCI-H23 lung): 5.93 µM
TGI (NCI-H23 lung): 32.8 µM
GI50 (NCI-H460 lung): 6.98 µM
TGI (NCI-H460 lung): > 100 µM
GI50 (NCI-H522 lung): 3.34 µM
TGI (NCI-H522 lung): 20.7 µM
GI50 (NCI/ADR-RES ovarian): 5.97 µM
TGI (NCI/ADR-RES ovarian): 36.7 µM
GI50 (OVCAR-3 ovarian): 2.85 µM
TGI (OVCAR-3 ovarian): 8.03 µM
GI50 (OVCAR-4 ovarian): 2.94 µM
TGI (OVCAR-4 ovarian): 12.4 µM
GI50 (OVCAR-5 ovarian): 24.3 µM
TGI (OVCAR-5 ovarian): > 100 µM
GI50 (OVCAR-8 ovarian): 2.47 µM
TGI (OVCAR-8 ovarian): 5.99 µM
GI50 (PC-3 prostate): 2.4 µM
TGI (PC-3 prostate): 8.82 µM
GI50 (RPMI-8226 leukemia): 2.87 µM
TGI (RPMI-8226 leukemia): 46.3 µM
GI50 (RXF 393 renal): 2.24 µM
TGI (RXF 393 renal): 4.41 µM
GI50 (SF-268 CNS): 3.38 µM
TGI (SF-268 CNS): 13.3 µM
GI50 (SF-295 CNS): 2.55 µM
TGI (SF-295 CNS): 8.8 µM
GI50 (SF-539 CNS): 3.36 µM
TGI (SF-539 CNS): 12.8 µM
GI50 (SK-MEL-2 melanoma): 2.76 µM
TGI (SK-MEL-2 melanoma): 10.7 µM
GI50 (SK-MEL-28 melanoma): 28.8 µM
TGI (SK-MEL-28 melanoma): > 100 µM
GI50 (SK-MEL-5 melanoma): 26.5 µM
TGI (SK-MEL-5 melanoma): > 100 µM
GI50 (SK-OV-3 ovarian): 12.5 µM
TGI (SK-OV-3 ovarian): 39.2 µM
GI50 (SN12C renal): 7.66 µM
TGI (SN12C renal): 48.2 µM
GI50 (SNB-19 CNS): 2.5 µM
TGI (SNB-19 CNS): 6.93 µM
GI50 (SNB-75 CNS): 2.55 µM
TGI (SNB-75 CNS): 9.71 µM
GI50 (SW-620 colon): 8.63 µM
TGI (SW-620 colon): > 100 µM
GI50 (T-47D breast): 2.2 µM
TGI (T-47D breast): 6.9 µM
GI50 (TK-10 renal): 2.84 µM
TGI (TK-10 renal): 9.22 µM
GI50 (U251 CNS): 3.07 µM
TGI (U251 CNS): 9.64 µM
GI50 (UACC-257 melanoma): 4.27 µM
TGI (UACC-257 melanoma): 25.4 µM
GI50 (UACC-62 melanoma): 13.3 µM
TGI (UACC-62 melanoma): 58.4 µM
GI50 (UO-31 renal): 3.14 µM
TGI (UO-31 renal): 22.1 µM
